Results: publication PMC11642940, “A New Demand for Improved Selectivity and Potency of Cyanine Dyes as Antiproliferative Agents Against Colorectal Cancer Cells” (Molecules, 2024)

What was measured:
[1] = MTT cell viability assay, Caco-2; details: human
Protocol: (§1) To evaluate the anticancer potential of monomethine cyanine dyes 1–12, a cell proliferation study was conducted using the 3-(4,5-dimethylthiazol-2-yl)-2,5-diphenyltetrazolium bromide (MTT) assay. For this preliminary evaluation, a concentration of 10 µM for each dye was tested, with the well-established chemotherapy agent 5-fluorouracil (5-FU) serving as a positive control. The assay included normal human dermal fibroblasts (NHDF) as non-tumor cells, alongside tumor cell lines from colorectal (Caco-2), prostate (PC-3), and breast (MCF-7) adenocarcinomas.
(§2) The cell lines used in this study (Caco-2, MCF-7, PC-3, and NHDF) were obtained from the American Type Culture Collection (ATCC, Manassas, VA, USA) and cultured in 75 cm^2 culture flasks at 37 °C in a humidified atmosphere with 5% CO2 in a LEEC Culture Safe Precision CO2 Incubator. PC-3 cells were grown in Roswell Park Memorial Institute (RPMI) medium supplemented with 10% of inactivated Fetal Bovine Serum (FBS) and 1% of an antibiotic mixture (Sp; 10,000 U/mL of penicillin G and […] of streptomycin). MCF-7 and Caco-2 cell lines were both cultured using Dulbecco’s Modified Eagle Medium (DMEM). However, the medium for MCF-7 cells was complemented with 10% of inactivated FBS and 1% of antibiotic/antimycotic mixture (Ab; 10,000 U/mL of penicillin G, […] of streptomycin and 25 µg/mL of amphotericin B), and the medium for Caco-2 cells was supplemented with 20% of inactivated FBS and 1% of Sp. Finally, RPMI medium supplemented with 10% FBS, 2 mM of L-glutamine, 10 mM of 4-(2-hydroxyethyl)-1-piperazineethanesulfonic acid (HEPES), 1 mM of sodium pyruvate, and 1% of Ab was used to culture NHDF cells. The culture media were renewed every two to three days until near confluence was achieved. Then, cells were detached using a solution of 0.125 g/L of trypsin and 0.02 g/L of ethylenediaminetetracetic acid (EDTA), counted by the trypan blue method, resuspended, and adequately seeded to continue the culture in 75 cm^2 flasks or for the experiments described below. All manipulations were performed in a Labculture Class II A2 Biological Safety Cabinet.
(§3) After trypsinization, cells were seeded in 96-well culture plates (100 µL; 2 × 10^4 cells/mL), and after 48 h (for adherence), they were incubated with the compounds under study in the absence of light for a duration of 72 h. Then, the medium was removed, and fresh incomplete culture medium (without FBS and Ab or Sp) and MTT solution [5 mg/mL in phosphate buffer saline (PBS)] were added to each well, followed by 4 h of incubation. After this, the medium containing MTT was removed and DMSO was added to dissolve formazan crystals. The absorbance of each well at 570 nm was determined using a microplate spectrophotometer Bio-Rad (Hercules, CA, USA) xMark. Untreated cells were considered the negative control, and 5-FU, a clinically used drug, was considered the positive control. For data analysis, the relative cell proliferation relative to the negative control cells was calculated. For each cell viability study, at least two independent assays in quadruplicate were performed. Increasing concentrations of the compounds between 0.001 and 100 μM were used to determine the IC50 values.

[2] = system: Caco-2 colorectal adenocarcinoma cells; assay: MTT cell viability assay, Caco-2; details: for IC50 / viability at 10 µM: Homo sapiens, Caco-2, 72 h; for IC50: read-out: IC50 Caco-2; for viability at 10 µM: read-out: cell viability percentage in relation to control, Caco-2; for SI Caco-2 (selectivity index, cancer versus non-cancer cell line NHDF): Caco-2 versus NHDF, 72 h
Protocol: as §1, §2, §3

Caco-2 cells = assay: Apoptosis (sub-G1 events) by PI staining and flow cytometry; format: cell-based, human; details: 72 h
Protocol: Given that apoptosis is a common programmed mechanism regulating cell death, characterized by DNA fragmentation and an increase in sub-G1 events, we employed the method described by Riccardi and Nicolleti to assess potential apoptosis induction using flow cytometry. Cyanine dyes 5 and 10 were tested at concentrations of 1 µM and 10 µM, respectively. As positive controls for apoptosis, 600 mM sorbitol and 10 µM 5-FU were used, with untreated cells serving as the negative control. […] In contrast, dye 10 induced a slight increase in apoptosis, reaching 1.7%. […] Apoptotic bodies were more evident in cells treated with dye 5 compared to dye 10, which is further supported by the slightly higher apoptosis induction in this assay.
Apoptosis (sub-G1 events) and cell cycle distribution were evaluated by propidium iodide (PI) staining and flow cytometry, as described by Riccardi and Nicolleti. […] Untreated cells were used as the negative control, and sorbitol and 5-FU were used as positive controls. After incubation, the supernatant was collected in a centrifuge tube, cells were washed with PBS, trypsinized and wells were once again washed with PBS. This cell suspension was maintained on ice, centrifugated at 300 g for 5 min, and then the pellet was resuspended in 0.5 mL of PBS. Cells were fixed by adding 4.5 mL of 70% ethanol cooled at −20 °C on ice and were stored at −20 °C for a period ranging from one to a few days. On the day of flow cytometry analysis, PBS was added to the fixed cell tubes, followed by centrifugation and removal of the supernatant. The pellet was resuspended in 0.5 mL of PBS and 0.5 mL of DNA extraction solution (192 mL of 0.2 M sodium phosphate and 8 mL of […], pH 7.8). After incubation for 5 min, the cells were once again centrifuged, the supernatant was removed, and the pellet was resuspended in 0.3 mL of staining solution (20 µg/mL of PI and 0.2 mg/mL of DNase-free RNase in PBS). Using a FACSCalibur flow cytometer (Becton Dickinson, Franklin Lakes, NJ, USA) with a 488 nm laser line, a minimum of 20,000 events were acquired and recorded using the BD CellQuestTM Pro 4.0.2 software, and analyzed with FlowJo 10.5.3 software. To exclude debris and necrotic cells, events with a lower diameter (forward scatter; FCS) and PI fluorescence (FL3) than the hypodiploid apoptotic cells were eliminated (Figures S1 and S2). Two independent experiments were performed. A Student’s t-test was performed to evaluate the statistical significance of the results.

[3] = Caco-2, SI Caco-2 (selectivity index, cancer versus non-cancer cell line NHDF), Caco-2 versus NHDF, 72 h

SMILES	selectivity ratio at 72 h ([1]; Caco-2)	IC50 [2]	viability at 10 µM [2]	apoptosis (sub-G1 events), % of cells (Caco-2 cells; Caco-2, 10 µM)	selectivity ratio at 72 h [1, 3]	SI Caco-2 (selectivity index, cancer versus non-cancer cell line NHDF) [2]	apoptosis (sub-G1 events), % of cells (Caco-2 cells; Caco-2, 1 µM)
O=c1[nH]cc(F)c(=O)[nH]1 [5-FU, 5-fluorouracil, reference compound]	4.1	1110 nM	30.1 ± 1.24%	12.8%	–	–	–
CN1C(=Cc2oc3ccccc3[n+]2C)C=Cc2ccccc21.Cc1ccc(S(=O)(=O)[O-])cc1 [Dye 5, 3-Methyl-2-((1-methylquinolin-2(1H)-ylidene)methyl)benzo[d]oxazol-3-ium 4-methylbenzenesulfonate]	–	10 nM	5.05 ± 0.19%	–	278	278.3	approximately 2.3%
CCN1C(=Cc2sc3cc([N+](=O)[O-])ccc3[n+]2CC)Sc2ccccc21.Cc1ccc(S(=O)(=O)[O-])cc1 [Dye 10, 3-Ethyl-2-((3-ethylbenzo[d]thiazol-2(3H)-ylidene)methyl)-6-nitrobenzo[d]thiazol-3-ium 4-methylbenzenesulfonate]	–	140 nM	18.6 ± 0.65%	1.7%	151	151.4	–
